The subject of one series is PSA. Nature of the series: PSA mRNA (qRT-PCR) and protein (Western blot) expression in VCaP cells. Format: cell-based. The following applies: 10 nM DHT, 24 hours. The method, then:
(§1) RNA expression level was analyzed by qRT-PCR and protein expression level was analyzed by Western blot. […] (I) Representative immunofluorescence microscopic images of VCaP cells for checking the subcellular localization of AR.
(§2) The RNA of VCaP cells was extracted using a Simply P Total RNA Extraction kit (Bioer technology) and cDNA was synthesized using a SMARTer PCR cDNA Synthesis Kit (Clontech). PSA and β-actin primers were synthesized by Sangon Biotech according to previous literature. Real-time PCR was performed using the PowerUp SYBR™ Green kit (ThermoFisher). The PCR program was run on a LightCycler 480II (Roche) and set as follows: 2 minutes at 95° C followed by 40 cycles of 30 seconds at 95° C, 15 seconds at 60° C and 30 seconds at 72° C. Data were quantified using the 2-ΔΔCt method based on the Ct values of PSA and β-actin from two parallel experiments performed in triplicate.
(§3) The whole-cell extracts were prepared in lysis buffer with a protease inhibitor cocktail (Bimake), while the xenograft tissue extracts were prepared in 0.5% Nonidet P 40 Substitute solution (Biosharp) with cocktail protease inhibitor (Bimake). Each sample containing 30 μg of total protein was loaded onto 10% SDS-PAGE and electrotransferred onto polyvinylidene fluoride membranes. […]
Background: Quantitative PCR measures a nucleic acid by following its amplification.

A further series has as its target T1, HDAC6 (Homo sapiens, UniProt Q9UBN7).
T1 sequence (Q9UBN7 1-1215): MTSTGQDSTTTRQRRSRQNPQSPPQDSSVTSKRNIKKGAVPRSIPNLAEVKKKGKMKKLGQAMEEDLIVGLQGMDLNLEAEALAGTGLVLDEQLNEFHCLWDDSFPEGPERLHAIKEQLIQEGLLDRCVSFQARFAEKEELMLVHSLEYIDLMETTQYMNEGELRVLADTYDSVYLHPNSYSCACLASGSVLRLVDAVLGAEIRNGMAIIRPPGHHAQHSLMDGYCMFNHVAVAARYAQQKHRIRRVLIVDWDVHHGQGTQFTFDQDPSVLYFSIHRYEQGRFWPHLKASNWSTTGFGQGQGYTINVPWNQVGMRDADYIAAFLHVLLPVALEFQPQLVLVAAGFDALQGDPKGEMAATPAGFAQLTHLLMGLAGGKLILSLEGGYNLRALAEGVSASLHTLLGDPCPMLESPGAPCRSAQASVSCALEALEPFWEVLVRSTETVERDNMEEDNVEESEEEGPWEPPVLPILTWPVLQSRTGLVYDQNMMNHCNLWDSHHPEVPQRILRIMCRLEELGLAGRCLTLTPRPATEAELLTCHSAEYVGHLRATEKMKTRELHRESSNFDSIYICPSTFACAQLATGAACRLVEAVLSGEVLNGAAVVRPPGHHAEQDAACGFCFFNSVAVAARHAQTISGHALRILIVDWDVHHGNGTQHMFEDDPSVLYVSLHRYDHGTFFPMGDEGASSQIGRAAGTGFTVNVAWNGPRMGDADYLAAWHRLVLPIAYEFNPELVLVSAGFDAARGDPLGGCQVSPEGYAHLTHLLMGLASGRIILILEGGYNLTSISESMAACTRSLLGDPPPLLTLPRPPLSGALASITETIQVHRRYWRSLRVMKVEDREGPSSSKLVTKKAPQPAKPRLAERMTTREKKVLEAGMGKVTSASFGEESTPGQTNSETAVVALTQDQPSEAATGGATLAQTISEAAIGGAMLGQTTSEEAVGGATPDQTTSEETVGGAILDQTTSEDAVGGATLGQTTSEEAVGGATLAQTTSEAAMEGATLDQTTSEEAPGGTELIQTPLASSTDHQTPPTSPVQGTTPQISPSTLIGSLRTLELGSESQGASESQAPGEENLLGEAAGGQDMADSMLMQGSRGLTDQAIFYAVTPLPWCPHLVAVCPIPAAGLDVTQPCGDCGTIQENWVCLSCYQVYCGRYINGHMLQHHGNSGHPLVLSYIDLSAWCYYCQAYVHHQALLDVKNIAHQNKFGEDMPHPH
Nature of the series: acetylation of α-tubulin (HDAC6 substrate) in VCaP cells, Western blot. It is filed as cell-based. The conditions noted are these: 24 hours. As for the experimental part:
as §1
To evaluate the HDAC6 inhibition ability of Zeta55 in VCaP cells, the acetylation status of α-tubulin protein (a HDAC6 substrate) was assessed using western blot. […] We assessed the protein level of AR in VCaP cells.
The whole-cell extracts were prepared in lysis buffer with a protease inhibitor cocktail (Bimake), while the xenograft tissue extracts were prepared in 0.5% Nonidet P 40 Substitute solution (Biosharp) with cocktail protease inhibitor (Bimake). Each sample containing 30 μg of total protein was loaded onto 10% SDS-PAGE and electrotransferred onto polyvinylidene fluoride membranes. The membranes were blocked with 5% skimmed milk in PBST at room temperature for 2 hours and incubated with primary antibodies at 4° C overnight. After the membranes were washed with PBST three times, they were incubated with horseradish peroxidase-conjugated anti-rabbit or anti-mouse secondary antibody at room temperature for 1 hour. Chemiluminescent detection was performed with WesternBright ECL (Advansta). The immunoblots were visualized using the FluorChem FC3 system (ProteinSimple).
Background: A western blot detects proteins with antibodies after separation by electrophoresis.

On the set-up of series [1]: method as in PMID 27590197. The following applies: rats; cited from earlier work.
For a further series, the system named is TMPRSS2. Nature of the series: TMPRSS2 mRNA (qRT-PCR) and protein (Western blot) expression in VCaP cells. It is filed as cell-based. The following applies: 10 nM DHT, 24 hours. As for the experimental part:
as §1, §2, §3

Structures are written as SMILES.

In the case of `CNC(=O)c1ccc(N2C(=S)N(c3ccc(C#N)c(C(F)(F)F)c3)C(=O)C2(C)C)cc1F` [MDV3100, reference compound], the “DHT-induced endogenous mRNA and protein expression of PSA” value in the series with PSA is “significantly suppressed”. The α-tubulin acetylation entry at HDAC6 was “did not”. In series [1], the oral bioavailability is 97% and the plasma half-life was 8.56 h. Also, the “DHT-induced endogenous mRNA and protein expression of TMPRSS2” value in the series with TMPRSS2 is recorded as “significantly suppressed”.

The values above are taken from PMC7993727, “Discovery of a novel AR/HDAC6 dual inhibitor for prostate cancer treatment” (Aging (Albany NY), 2021).
